According to patent US12428405B2, “Chalcone-based chemotherapeutic compound for triple negative breast cancer” (QATAR UNIVERSITY, priority 2019, dated 2025):
Several values for one entry are separate records, joined by “and”; a condition that tells them apart may be missing. Identical values can stand only once. Like-named read-outs stand apart in the source and are kept apart here.

Key:
MDA-MB-231 [1] = experiment: Cell cycle analysis (flow cytometry); assay type: cell-based; details: 48 hours
Procedure: (§1) The MDA-MB-231, MDA-MB-468 and MCF-7 cell lines were seeded on 6-well plates at a concentration of 200,000 cells per well and were maintained in culture supplemented with 10% fetal bovine serum for 8-10 hours. The same day, media was removed and cells were incubated overnight with serum free media. Second day, cells were treated with the compounds. Adherent and floating cell populations were harvested at 48 hours after treatment with different concentrations of the compounds and counted.
(§2) Afterward, cells were washed with cold PBS once, centrifuged at 4° C. and fixed with 1.5 ml cold 70% ethanol added drop wise while slowly vortexing. Samples were then stored at […] Following fixation, cells were pelleted and washed with ice-cold PBS. Equal aliquots were collected and resuspended in 300 μl of Tali® Cell Cycle Kit and incubated at 37 C. with slow shaking speed for 30 minutes in the dark. Accuri C6 flow cytometer (BD Biosciences, USA) was used to analyze the cells. The FlowJo V10 software was used to process and evaluate the results.

MDA-MB-468 [2] = experiment: Cell cycle analysis (flow cytometry); assay type: cell-based; details: 48 hours
Procedure: as §1, §2

MCF-7 = experiment: Cell cycle analysis (flow cytometry); assay type: cell-based; details: 48 h; 10 μM of compound 13, 5 μM of compound 14
Procedure: as §1, §2

HNME-E6/E7 = experiment: MTT cell viability on immortalized normal mammary epithelial cells; assay type: cell-based, human; details: normal cell line; 48 hours of treatment; Mean ± SEM (n = 3 × 3)
From the text: Breast cancer cell lines including MDA-MB-231, MDA-MB-468, MCF-7, BT-474 and SK-BR-3 were obtained from the American Type Tissue Culture (ATCC) and maintained in complete cell culture media Gibco® RPMI 1640 (Thermo Fisher Scientific, USA) supplemented with 10% fetal bovine serum (PAN-Biotech, Aidenbach, Bavaria, Germany) and 1% penicillin/streptomycin (1×) antibiotics (Thermo Fisher Scientific, USA). Human normal mammary epithelial cells immortalized by E6/E7 of HPV type 16 (HNME-E6/E7) were used to predict potential safety of the compounds (125, 126). They were maintained in Gibco® Keratinocyte-SFM (1×) media. All cells were incubated in 5% CO2 at 37° C. incubator. Cells were maintained by routine sub-culturing in T-75 and T25 filtered tissue culture flasks.
MDA-MB-231, MDA-MB-468, MCF-7, BT-474 and HNME-E6/E7 cells were seeded overnight in 96-well plates at a concentration of 8000-10,000/well depending on their pre-calculated cell density and were incubated overnight. At 24 hours, media was replaced with fresh one. The treatment wells included 6-8 different concentrations of the compounds ranging between 0.25 μM-160 μM. […] Absorbance was recorded at a wavelength of 562 nm after 3 minutes of shaking using Infinite 200 PRO Microplate Reader (Tecan, Switzerland). Percentage of viable cells was calculated using the following formula: […]

MDA-MB-231 [3] = experiment: Migration (wound healing) assay; assay type: cell-based; details: for IC50: 24 hours of treatment, 5 concentrations, two independent experiments, read-out: Migratory IC50 MDA-MB-231; for activity at 5 µM: 24 hours post treatment, control = 100, Mean ± SEM (N = 2 × 2), read-out: % migration
Procedure: MDA-MB-231 cells were seeded in 12-wells plates at a concentration of 500,000 cells/well and were incubated in complete RPMI culture medium until covering the well and reaching around 90-100% confluency. Following, cells were serum starved for 4 hours and a 200 μl pipette tip was used to create the scratch followed by cell washing with PBS twice. […] Microscopic pictures were then taken, and cell migration was quantified based on the wound diameter at 24 hours minus the initial diameter at time zero, as represented by the following equation: % Migration=[…]

[4] = tested on: Epithelial Mesenchymal Transition (EMT) markers in MDA-MB-231 cells; experiment: Western blot of EMT markers; assay type: cell-based
Procedure: (§3) Proteins were quantified with the Pierce BCA Protein Assay Kit (Thermo Scientific, USA) following cell lysis. SDS-PAGE was prepared at a concentration of 10% for all studied proteins. All samples were loaded at 40 μg per 1.5 mm 15 wells comb. Running of stained samples was performed using two steps gel electrophoresis (60 Volts for 20 minutes followed by 120 Volts for 1 hour). Afterwards, gels were transferred into PVDF membrane at 100 Voltage for 1.5-2.0 hours using wet transfer. Following transfer, PVDF membranes were blocked with 5% skimmed milk and washed three times. Primary antibodies (Table 2.2) were prepared, then PVDF membrane were incubated with them overnight with gentle shaking at 4° C. Afterwards, membranes were washed three times and incubated with their respective secondary antibodies for 1-2 hours with gentle shaking at room temperature. Pierce™ ECL Western Blotting Substrate was used to detect proteins by chemiluminescence. Blots were imaged using the ibrightCL1000 imaging system.

EMT markers on MCF-7 = experiment: Western blot of EMT markers; assay type: cell-based; details: 5 and 10 μM
Procedure: as §3

MDA-MB-468 [5] = experiment: PE Annexin V apoptosis assay (flow cytometry); assay type: cell-based
Procedure: PE Annexin V apoptosis Detection Kit (BD Pharmingen, USA) was used to quantify cell apoptosis in treated versus untreated MDA-MB-468 cells at 24 and 48 hours post treatment. Briefly, cells were seeded at a density of 300,000 cells/well in 6-well plates. Second day, media was replaced with fresh media and treatment was added. Cells were harvested following treatment and each group of cells was stained with PE Annexin V and 7-AAD Annexin V as per the protocol specified on the kit. Samples were then analyzed by Accuri C6 flow cytometer (BD Biosciences, USA). The percentages of cells (viable cells, apoptotic cells, necrotic cells and dead cells) were quantified in each of the four quadrants. Data and figures were processed using the FlowJo V10 software.

[6] = tested on: MDA-MB-231 xenografted nude mice; experiment: In vivo tumor growth, xenograft model
[7] = Two-week safety and tolerability of the dose before inoculation; details: 10 mg/kg intraperitoneally for two weeks; n=5
[8] = 10 mg/kg i.p., three times per week, 45 days

For `COc1cccc(C(=O)/C=C/c2ccc(N(CCCl)CCCl)cc2)c1` [Compound 14, (E)-3-(4-(Bis(2-chloroethyl)amino)phenyl)-1-(3-methoxyphenyl) prop-2-en-1-one], the “cells arrested at the G2/M phase (cells percentage)” value (MDA-MB-231 [1]; 5 μM of compound 14) was 47.27±7.869%, the “cells arrested at the G2/M phase (cells percentage)” value (MDA-MB-468 [2]; 5 μM of compound 14) was 66.45±4.25% and the “cell cycle arrest (in words)” value (MCF-7) was “mainly noticed in the invasive cell lines but not in the noninvasive, MCF-7, cells”. For the same compound, the “LD50 HNME-E6/E7” value (HNME-E6/E7) was 20.67 ± 1.50 µM, the IC50 (MDA-MB-231 [3]) was 2860 ± 197 nM and the IC50 (MDA-MB-231 [3]; Homo sapiens, MDA-MB-231, 24 h) was 2860 ± 200 nM. For the same compound, the activity at 5 µM (MDA-MB-231 [3]; Homo sapiens, MDA-MB-231, 5 μM) was 32.11 ± 0.17%, the inhibition at 5 µM (MDA-MB-231 [3]; Homo sapiens, MDA-MB-231, 5 μM, 24 hours, read-out: inhibition of cell migration) was 67.89 ± 0.17% and the E-cadherin expression ([4]; 5 and 10 μM) was “concentration dependent upregulation”. For the same compound, the pan-cadherin expression ([4]; 5 and 10 μM) was “upregulated by compound 14 in a concentration dependent manner”, the “Focal adhesion kinase (FAK) expression” value ([4]; MDA-MB-231) was “downregulated” and the “expression of β-catenin and its phosphorylated form” value ([4]; cell line not named in the sentence (FIG. 3.24, FIG. 3.25)) was “No significant changes”. The “EMT (in words)” value ([4]; summary statement) was “reversal of EMT”, the E-cadherin expression (EMT markers on MCF-7) was “concentration dependent upregulation” and the pan-cadherin expression (EMT markers on MCF-7) was “upregulated by compound 14 in a concentration dependent manner”. For the same compound, the “early and late apoptosis (in words)” value (MDA-MB-468 [5]; 24 and 48 hours) was “time dependent”, the rate of apoptosis (MDA-MB-468 [5]; 48 hours, N=1) was 28.00% and the “day on which the tumor in the treated group started to grow” value ([6]; 10 mg/kg i.p., three times per week) was 24 days. For the same compound, the “clinical toxicity to treated animals (in words)” value [6, 8] was “no notable clinical toxicity”, the “mice health and weight (in words)” value [6, 8] was “did not affect the mice health nor it had induced any changes to the mice weight” and the “inhibition in tumor growth as compared to the placebo” value ([6]; 10 mg/kg i.p., three times per week, day 45, n=5) was 46.41±0.71% and 46.41%. For the same compound, the “survival rate of the mice” value ([6]; during the 45 days) was 100%, the tumor volume ([6]; treated mice, day 45, n=5) was 1350±1350 mm^3 and the tumor weight ([6]; treated mice, day 45, n=5) was 0.88±0.71 gm. The “clinical observations, tolerability (in words)” value [7] was “did not show any changes in the mice food intake, weights, or shape”.
For `CS(=O)(=O)c1ccc(C(=O)/C=C/c2ccc(N(CCCl)CCCl)cc2)cc1` [Compound 13, (E)-3-(4-(Bis(2-chloroethyl)amino)phenyl)-1-(4-(methylsulfonyl)phenyl) prop-2-en-1-one], the “cell cycle arrest at the S phase (cells percentage)” value (MDA-MB-231 [1]; 10 μM of compound 13) was 28.7±1.87%, the “cell cycle arrest at the S phase (cells percentage)” value (MDA-MB-468 [2]; 10 μM of compound 13) was 46.8±5.39% and the “cell cycle arrest (in words)” value (MCF-7) was “mainly noticed in the invasive cell lines but not in the noninvasive, MCF-7, cells”. The “LD50 HNME-E6/E7” value (HNME-E6/E7) was 32.32 ± 3.93 µM, the IC50 (MDA-MB-231 [3]; Homo sapiens, MDA-MB-231, 24 h) was 5710 ± 570 nM and the activity at 5 µM (MDA-MB-231 [3]; Homo sapiens, MDA-MB-231, 5 μM) was 59.5 ± 2.75%.
